Assays:
[1] = molecular target: Testis-specific serine/threonine-protein kinase 1 (Homo sapiens) (UniProt Q9BXA7); assay: Inhibition of N-terminal GST-fused full length human TSSK1 (1 to 367 residues) expressed in baculovirus expression system using GS peptide as substrate at 1 uM in presence of ATP by Mobility shift assay
[2] = molecular target: Serine/threonine-protein kinase TAO2 (Homo sapiens) (UniProt Q9UL54); assay: Inhibition of N-terminal GST-fused human TAOK2 catalytic domain (1 to 319 residues) expressed in baculovirus expression system using TAOKtide as substrate at 1 uM in presence of ATP by Mobility shift assay
[3] = molecular target: Vascular endothelial growth factor receptor 1 (Homo sapiens) (UniProt P17948); assay: Inhibition of N-terminal GST-fused human FLT1 cytoplasmic domain (781 to 1338 residues) expressed in baculovirus-infected Sf21 cells using CSKtide as substrate at 1 uM in presence of ATP by Mobility shift assay
[4] = molecular target: cAMP-dependent protein kinase catalytic subunit PRKX (Homo sapiens) (UniProt P51817); assay: Inhibition of N-terminal GST-fused full length human PRKX (1 to 358 residues) expressed in baculovirus expression system using Kemptide as substrate at 1 uM in presence of ATP by Mobility shift assay
[5] = molecular target: Calcium/calmodulin-dependent protein kinase type 1 (Homo sapiens) (UniProt Q14012); assay: Inhibition of N-terminal GST-tagged full length human CAMK1a (1 to 370 residues) expressed in baculovirus-infected Sf21 cells using GS peptide as substrate at 1 uM in presence of ATP by Mobility shift assay
Chain of Calcium/calmodulin-dependent protein kinase type 1 (Homo sapiens) (Q14012 whole entry, looked up, the tested form may be a part): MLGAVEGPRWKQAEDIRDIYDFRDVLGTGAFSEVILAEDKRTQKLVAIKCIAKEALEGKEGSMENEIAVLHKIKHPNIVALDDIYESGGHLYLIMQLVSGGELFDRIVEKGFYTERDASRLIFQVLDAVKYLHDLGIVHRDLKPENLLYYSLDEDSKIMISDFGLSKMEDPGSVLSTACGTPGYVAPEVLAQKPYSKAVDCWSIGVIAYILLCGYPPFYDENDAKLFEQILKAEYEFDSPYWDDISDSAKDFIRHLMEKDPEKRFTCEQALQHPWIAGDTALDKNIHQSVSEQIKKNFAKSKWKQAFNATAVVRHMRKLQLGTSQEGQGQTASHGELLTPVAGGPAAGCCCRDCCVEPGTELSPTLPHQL

[6] = molecular target: Discoidin domain-containing receptor 2 (Homo sapiens) (UniProt Q16832); assay: Inhibition of N-terminal GST-fused human DDR2 cytoplasmic domain (422 to 855 residues) expressed in baculovirus-infected Sf21 cells using IRS1 as substrate at 1 uM in presence of ATP by Mobility shift assay
[7] = molecular target: Protein kinase C epsilon type (Homo sapiens) (UniProt Q02156); assay: Inhibition of N-terminal GST-fused human full length PKC-epsilon (1 to 737 residues ) expressed in baculovirus expression system using PKC peptide as substrate at 1 uM in presence of ATP by Mobility shift assay
Chain of Protein kinase C epsilon type (Homo sapiens) (Q02156 whole entry, the tested form may be a part): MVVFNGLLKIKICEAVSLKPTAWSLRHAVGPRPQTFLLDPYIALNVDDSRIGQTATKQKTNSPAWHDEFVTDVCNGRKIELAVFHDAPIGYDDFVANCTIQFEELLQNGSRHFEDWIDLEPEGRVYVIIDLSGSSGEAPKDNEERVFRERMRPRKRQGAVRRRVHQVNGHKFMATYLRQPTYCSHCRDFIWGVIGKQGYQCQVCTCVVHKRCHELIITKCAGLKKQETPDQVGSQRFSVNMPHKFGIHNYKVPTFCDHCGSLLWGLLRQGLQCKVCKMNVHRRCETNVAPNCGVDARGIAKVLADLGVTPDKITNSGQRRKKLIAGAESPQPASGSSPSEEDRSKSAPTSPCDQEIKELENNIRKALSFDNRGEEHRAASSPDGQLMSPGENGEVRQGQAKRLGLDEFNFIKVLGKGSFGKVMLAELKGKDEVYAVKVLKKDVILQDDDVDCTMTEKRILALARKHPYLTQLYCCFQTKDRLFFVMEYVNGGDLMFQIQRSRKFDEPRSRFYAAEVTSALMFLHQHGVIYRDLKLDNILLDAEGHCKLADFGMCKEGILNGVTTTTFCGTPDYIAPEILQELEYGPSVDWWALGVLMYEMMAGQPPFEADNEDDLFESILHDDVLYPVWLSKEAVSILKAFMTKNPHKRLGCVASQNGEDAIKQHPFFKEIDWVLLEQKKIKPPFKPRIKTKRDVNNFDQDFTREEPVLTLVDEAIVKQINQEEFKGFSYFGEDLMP

[8] = molecular target: Lymphokine-activated killer T-cell-originated protein kinase (Homo sapiens) (UniProt Q96KB5); assay: Inhibition of N-terminal GST-fused full length human PBK (1 to 322 residues) expressed in baculovirus expression system using Histone H3 peptide as substrate at 1 uM in presence of ATP by Mobility shift assay
Chain of Lymphokine-activated killer T-cell-originated protein kinase (Homo sapiens) (Q96KB5 whole entry, the tested form may be a part): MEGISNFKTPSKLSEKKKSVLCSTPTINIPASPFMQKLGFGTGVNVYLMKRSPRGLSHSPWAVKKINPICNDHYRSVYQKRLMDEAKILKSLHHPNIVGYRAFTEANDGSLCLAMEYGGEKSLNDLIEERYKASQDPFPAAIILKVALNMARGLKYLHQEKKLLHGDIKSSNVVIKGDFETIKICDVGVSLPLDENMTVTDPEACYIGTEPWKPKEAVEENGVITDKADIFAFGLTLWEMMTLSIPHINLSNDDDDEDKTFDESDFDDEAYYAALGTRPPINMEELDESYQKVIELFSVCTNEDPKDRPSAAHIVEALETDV

[9] = molecular target: Tyrosine-protein kinase BTK (Homo sapiens) (UniProt Q06187); assay: Inhibition of N-terminal GST-fused full length human BTK (2 to 659 residues) expressed in baculovirus infected Sf21 cells using Srctide as substrate at 1 uM in presence of ATP by Mobility shift assay
[10] = molecular target: Mitogen-activated protein kinase 7 (Homo sapiens) (UniProt Q13164); assay: Inhibition of N-terminal GST-fused human ERK5 catalytic domain (1 to 398 residues) expressed in Escherichia coli expression system using EGFR-derived peptide as substrate at 1 uM in presence of ATP by Mobility shift assay
Chain of Mitogen-activated protein kinase 7 (Homo sapiens) (Q13164 2-816 limits assumed): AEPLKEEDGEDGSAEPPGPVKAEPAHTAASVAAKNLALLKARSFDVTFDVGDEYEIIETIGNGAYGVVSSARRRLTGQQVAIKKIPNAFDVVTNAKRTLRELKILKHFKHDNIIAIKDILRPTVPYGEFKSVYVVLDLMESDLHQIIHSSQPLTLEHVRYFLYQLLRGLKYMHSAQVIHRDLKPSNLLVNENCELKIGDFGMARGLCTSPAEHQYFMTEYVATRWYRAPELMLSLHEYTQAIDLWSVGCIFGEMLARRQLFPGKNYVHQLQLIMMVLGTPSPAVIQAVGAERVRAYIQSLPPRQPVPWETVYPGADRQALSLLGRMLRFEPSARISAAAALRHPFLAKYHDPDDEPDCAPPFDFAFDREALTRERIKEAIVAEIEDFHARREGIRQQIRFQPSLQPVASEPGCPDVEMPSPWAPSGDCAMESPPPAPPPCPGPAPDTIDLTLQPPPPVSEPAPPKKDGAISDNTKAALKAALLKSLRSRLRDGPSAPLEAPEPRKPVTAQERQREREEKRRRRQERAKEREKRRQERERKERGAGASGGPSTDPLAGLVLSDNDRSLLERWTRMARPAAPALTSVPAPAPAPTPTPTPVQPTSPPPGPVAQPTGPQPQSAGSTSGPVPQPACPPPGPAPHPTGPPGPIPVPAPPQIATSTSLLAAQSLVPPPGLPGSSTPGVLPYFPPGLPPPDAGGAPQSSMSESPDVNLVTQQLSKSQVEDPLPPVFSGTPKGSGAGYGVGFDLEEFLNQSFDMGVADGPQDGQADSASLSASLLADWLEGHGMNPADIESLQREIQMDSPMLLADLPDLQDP

[11] = molecular target: MAP kinase-interacting serine/threonine-protein kinase 1 (Homo sapiens) (UniProt Q9BUB5); assay: Inhibition of N-terminal GST-fused full length human MNK1 (1 to 424 residues) expressed in baculovirus expression system using RS peptide as substrate at 1 uM in presence of ATP by Mobility shift assay
[12] = molecular target: Mitogen-activated protein kinase 11 (Homo sapiens) (UniProt Q15759); assay: Inhibition of N-terminal GST-fused full length human p38beta (1 to 364 residues) expressed in Escherichia coli expression system using Modified Erktide as substrate at 1 uM in presence of ATP by Mobility shift assay
[13] = molecular target: NUAK family SNF1-like kinase 2 (Homo sapiens) (UniProt Q9H093); assay: Inhibition of N-terminal GST-fused full length human Nuak2 (1 to 628 residues) expressed in baculovirus expression system using CHKtide as substrate at 1 uM in presence of ATP by Mobility shift assay
[14] = molecular target: Maternal embryonic leucine zipper kinase (Homo sapiens) (UniProt Q14680); assay: Inhibition of N-terminal GST-fused truncated human MELK (1 to 493 residues) expressed in Escherichia coli expression system using GS peptide as substrate at 1 uM in presence of ATP by Mobility shift assay
[15] = molecular target: Inhibitor of nuclear factor kappa-B kinase subunit epsilon (Homo sapiens) (UniProt Q14164); assay: Inhibition of N-terminal GST-fused full length human IKK-epsilon(1 to 716 residues) expressed in baculovirus expression system using IkBalpha peptide as substrate at 1 uM in presence of ATP by Mobility shift assay
[16] = molecular target: Interleukin-1 receptor-associated kinase 4 (Homo sapiens) (UniProt Q9NWZ3); assay: Inhibition of N-terminal GST-fused full length human IRAK4 (1 to 460 residues) expressed in baculovirus expression system using IRAK1 peptide as substrate at 1 uM in presence of ATP by Mobility shift assay
[17] = molecular target: Mast/stem cell growth factor receptor Kit (Homo sapiens) (UniProt P10721); assay: Inhibition of N-terminal GST-tagged human KIT cytoplasmic domain (544 to 976 residues) expressed in baculovirus-infected Sf21 cells using Srctide as substrate at 1 uM in presence of ATP by Mobility shift assay
[18] = molecular target: Proto-oncogene tyrosine-protein kinase Src (Homo sapiens) (UniProt P12931); assay: Inhibition of N-terminal GST-tagged full length human SRC (1 to 536 residues) expressed in baculovirus-infected Sf21 cells using Srctide as substrate at 1 uM in presence of ATP by Mobility shift assay
[19] = molecular target: Serine/threonine-protein kinase 4 (Homo sapiens) (UniProt Q13043); assay: Inhibition of N-terminal GST-fused full length human MST1 (1 to 487 residues) expressed in baculovirus expression system using IRS1 as substrate at 1 uM in presence of ATP by Mobility shift assay
Chain of Serine/threonine-protein kinase 4 (Homo sapiens) (Q13043 whole entry, the tested form may be a part): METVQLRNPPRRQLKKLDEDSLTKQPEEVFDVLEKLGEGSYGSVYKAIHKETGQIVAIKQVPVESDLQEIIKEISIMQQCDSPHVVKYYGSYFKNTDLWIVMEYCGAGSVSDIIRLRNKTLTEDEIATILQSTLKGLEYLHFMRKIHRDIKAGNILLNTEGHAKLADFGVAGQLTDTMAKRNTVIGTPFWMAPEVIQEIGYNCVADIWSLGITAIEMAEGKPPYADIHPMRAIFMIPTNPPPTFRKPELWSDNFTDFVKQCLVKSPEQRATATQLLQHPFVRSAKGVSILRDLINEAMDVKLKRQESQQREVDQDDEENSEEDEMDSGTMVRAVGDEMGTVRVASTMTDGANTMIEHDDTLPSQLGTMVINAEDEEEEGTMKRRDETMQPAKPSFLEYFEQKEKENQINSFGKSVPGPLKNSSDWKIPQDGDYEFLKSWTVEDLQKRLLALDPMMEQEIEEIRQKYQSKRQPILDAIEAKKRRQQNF

[20] = molecular target: BDNF/NT-3 growth factors receptor (Homo sapiens) (UniProt Q16620); assay: Inhibition of N-terminal GST-tagged human TRKB cytoplasmic domain (456 to 822 residues) expressed in baculovirus-infected Sf21 cells using Srctide as substrate at 1 uM in presence of ATP by Mobility shift assay
Chain of BDNF/NT-3 growth factors receptor (Homo sapiens) (Q16620 32-822 limits assumed): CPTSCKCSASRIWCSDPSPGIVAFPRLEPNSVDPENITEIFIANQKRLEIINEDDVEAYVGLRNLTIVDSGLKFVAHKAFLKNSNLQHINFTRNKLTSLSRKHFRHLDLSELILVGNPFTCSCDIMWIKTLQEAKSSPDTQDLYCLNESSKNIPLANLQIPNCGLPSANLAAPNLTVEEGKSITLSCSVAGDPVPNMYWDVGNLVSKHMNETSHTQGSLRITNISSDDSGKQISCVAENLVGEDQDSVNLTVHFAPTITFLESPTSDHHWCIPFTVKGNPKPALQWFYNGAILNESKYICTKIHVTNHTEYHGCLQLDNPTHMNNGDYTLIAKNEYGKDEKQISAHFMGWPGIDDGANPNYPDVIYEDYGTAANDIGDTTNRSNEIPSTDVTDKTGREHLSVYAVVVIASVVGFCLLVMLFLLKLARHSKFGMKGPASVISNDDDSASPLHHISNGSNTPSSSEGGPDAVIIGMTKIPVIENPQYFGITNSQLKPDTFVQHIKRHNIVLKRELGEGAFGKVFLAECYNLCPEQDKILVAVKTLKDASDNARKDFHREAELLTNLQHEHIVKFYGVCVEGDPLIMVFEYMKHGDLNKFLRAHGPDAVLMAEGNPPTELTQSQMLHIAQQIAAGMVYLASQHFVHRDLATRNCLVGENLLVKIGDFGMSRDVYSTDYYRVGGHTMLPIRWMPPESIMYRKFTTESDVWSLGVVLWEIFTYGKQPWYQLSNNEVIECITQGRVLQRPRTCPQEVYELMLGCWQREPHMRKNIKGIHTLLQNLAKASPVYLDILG

[21] = molecular target: MAP kinase-activated protein kinase 5 (Homo sapiens) (UniProt Q8IW41); assay: Inhibition of N-terminal GST-fused full length human MAPKAPK5 (1 to 471 residues) expressed in baculovirus expression system using GS peptide as substrate at 1 uM in presence of ATP by Mobility shift assay
Chain of MAP kinase-activated protein kinase 5 (Homo sapiens) (Q8IW41 whole entry, the tested form may be a part): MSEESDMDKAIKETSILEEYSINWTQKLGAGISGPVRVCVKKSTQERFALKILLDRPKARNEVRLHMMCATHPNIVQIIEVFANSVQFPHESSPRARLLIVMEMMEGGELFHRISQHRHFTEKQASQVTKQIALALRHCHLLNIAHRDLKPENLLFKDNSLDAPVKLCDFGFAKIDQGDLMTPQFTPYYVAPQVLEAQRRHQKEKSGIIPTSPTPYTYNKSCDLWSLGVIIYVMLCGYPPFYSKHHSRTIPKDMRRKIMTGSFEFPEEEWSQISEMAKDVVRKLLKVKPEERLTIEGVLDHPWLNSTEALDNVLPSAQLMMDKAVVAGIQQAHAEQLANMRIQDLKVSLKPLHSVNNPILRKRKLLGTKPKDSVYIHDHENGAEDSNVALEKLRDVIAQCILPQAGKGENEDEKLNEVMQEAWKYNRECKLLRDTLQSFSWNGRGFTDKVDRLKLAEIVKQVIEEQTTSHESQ

[22] = molecular target: Homeodomain-interacting protein kinase 3 (Homo sapiens) (UniProt Q9H422); assay: Inhibition of N-terminal GST-fused human HIPK3 catalytic domain (161 to 562 residues) expressed in baculovirus expression system using DYRKtide-F as substrate at 1 uM in presence of ATP by Mobility shift assay
[23] = molecular target: SRSF protein kinase 1 (Homo sapiens) (UniProt Q96SB4); assay: Inhibition of N-terminal GST-fused full length human SRPK1 (1 to 655 residues) expressed in Escherichia coli expression system using SRPKtide as substrate at 1 uM in presence of ATP by IMAP assay
Chain of SRSF protein kinase 1 (Homo sapiens) (Q96SB4 whole entry, the tested form may be a part): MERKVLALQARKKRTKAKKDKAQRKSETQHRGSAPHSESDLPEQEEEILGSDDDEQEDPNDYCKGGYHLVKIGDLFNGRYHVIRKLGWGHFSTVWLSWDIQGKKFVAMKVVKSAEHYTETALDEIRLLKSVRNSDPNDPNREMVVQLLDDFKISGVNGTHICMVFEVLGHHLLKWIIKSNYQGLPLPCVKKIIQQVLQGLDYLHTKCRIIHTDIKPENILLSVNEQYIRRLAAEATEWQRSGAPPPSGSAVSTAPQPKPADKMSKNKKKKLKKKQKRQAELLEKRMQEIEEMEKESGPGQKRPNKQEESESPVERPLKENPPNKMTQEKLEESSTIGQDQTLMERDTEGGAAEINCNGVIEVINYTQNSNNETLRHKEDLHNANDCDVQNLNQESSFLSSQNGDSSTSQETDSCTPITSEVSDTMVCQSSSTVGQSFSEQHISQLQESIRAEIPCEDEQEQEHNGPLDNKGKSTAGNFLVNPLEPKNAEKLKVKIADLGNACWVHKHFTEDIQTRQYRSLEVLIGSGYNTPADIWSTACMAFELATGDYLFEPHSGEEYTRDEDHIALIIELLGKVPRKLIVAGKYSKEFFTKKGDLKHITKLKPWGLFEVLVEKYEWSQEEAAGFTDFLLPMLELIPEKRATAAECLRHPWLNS

Chain of Testis-specific serine/threonine-protein kinase 1 (Homo sapiens) (Q9BXA7 whole entry, the tested form may be a part): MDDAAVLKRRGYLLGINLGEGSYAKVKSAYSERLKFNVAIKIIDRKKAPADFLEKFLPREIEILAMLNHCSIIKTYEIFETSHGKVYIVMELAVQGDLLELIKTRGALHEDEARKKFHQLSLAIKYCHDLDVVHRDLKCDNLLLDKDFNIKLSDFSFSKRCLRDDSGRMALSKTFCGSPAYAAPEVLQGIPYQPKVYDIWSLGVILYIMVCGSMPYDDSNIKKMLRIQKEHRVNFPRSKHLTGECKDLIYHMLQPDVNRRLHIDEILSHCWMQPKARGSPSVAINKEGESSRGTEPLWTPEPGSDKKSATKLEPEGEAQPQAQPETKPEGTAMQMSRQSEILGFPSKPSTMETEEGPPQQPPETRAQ

Structure (SMILES): Cc1cc(C)c(CNC(=O)c2cc(Cl)c3c(c2C)O[C@@](C)([C@H]2CC[C@H](N(C)C)CC2)O3)c(=O)[nH]1 [VALEMETOSTAT]
- inhibition [1]: -4.9%
- inhibition [2]: -0.5%
- inhibition [3]: -5.2%
- inhibition [4]: -1.9%
- inhibition [5]: -2.8%
- inhibition [6]: -2.8%
- inhibition [7]: 16.4%
- inhibition [8]: -3.4%
- inhibition [9]: -9%
- inhibition [10]: -2.3%
- inhibition [11]: 0.2%
- inhibition [12]: -5.6%
- inhibition [13]: 2.1%
- inhibition [14]: 1.3%
- inhibition [15]: -2.8%
- inhibition [16]: -4.1%
- inhibition [17]: -5.6%
- inhibition [18]: -7.6%
- inhibition [19]: -1.9%
- inhibition [20]: 0.6%
- inhibition [21]: -5.7%
- inhibition [22]: 1.4%
- inhibition [23]: -6.9%

Structure (SMILES): Cc1cc(C)c(CNC(=O)c2cc(Br)c3c(c2C)O[C@@](C)([C@H]2CC[C@H](N(C)C)CC2)O3)c(=O)[nH]1
- inhibition [1]: -2.6%
- inhibition [2]: -2.8%
- inhibition [3]: -4.4%
- inhibition [4]: -0.6%
- inhibition [5]: 0.2%
- inhibition [6]: -0.2%
- inhibition [7]: 17%
- inhibition [8]: -2.5%
- inhibition [9]: -10%
- inhibition [10]: -2.5%
- inhibition [11]: -0.2%
- inhibition [12]: -3.1%
- inhibition [13]: -4%
- inhibition [14]: 2.9%
- inhibition [15]: -5.6%
- inhibition [16]: -5.6%
- inhibition [17]: -4.7%
- inhibition [18]: -4.9%
- inhibition [19]: -2.7%
- inhibition [20]: -2.8%
- inhibition [21]: -3.1%
- inhibition [22]: -1.8%
- inhibition [23]: -4.7%

From ChEMBL document CHEMBL5647694, “Novel orally bioavailable EZH1/2 dual inhibitors with greater antitumor efficacy than an EZH2 selective inhibitor” (Cancer Sci, 2017)
